Where a name gives a salt, the structure may show the parent alone. Read-outs that look alike come from different tables or passages of the source. Starred links: 1 amine or outer side, 2 acyl side, 3 side chain; linkers in the order of their positions; H or OH if unused. Positions of bridges follow the written chain, without caps; N, C: chain ends. Non-standard residues stand in square brackets, D forms with d. Residues, ends and D or L forms follow the SMILES beside them. Chains are numbered I, II in the order given. Actinocin(9to1) = Cc1c2oc3c(C)ccc(C(=O)[*:1])c3nc-2c(C(=O)[*:2])c(N)c1=O; NMeV = CN[C@H](C(=O)O)C(C)C; Sar = CNCC(=O)O
Target: T1, human AspH (His6-AspH315–758) (Homo sapiens, UniProt Q12797)
T1 construct: N-Terminally His6-tagged human AspH315–758 (His6-AspH315–758) was produced in Escherichia coli BL21 (DE3) cells; made in house; host or cells: Escherichia coli BL21 (DE3), pET-28a(+) vector
T1 sequence (Q12797 315-758): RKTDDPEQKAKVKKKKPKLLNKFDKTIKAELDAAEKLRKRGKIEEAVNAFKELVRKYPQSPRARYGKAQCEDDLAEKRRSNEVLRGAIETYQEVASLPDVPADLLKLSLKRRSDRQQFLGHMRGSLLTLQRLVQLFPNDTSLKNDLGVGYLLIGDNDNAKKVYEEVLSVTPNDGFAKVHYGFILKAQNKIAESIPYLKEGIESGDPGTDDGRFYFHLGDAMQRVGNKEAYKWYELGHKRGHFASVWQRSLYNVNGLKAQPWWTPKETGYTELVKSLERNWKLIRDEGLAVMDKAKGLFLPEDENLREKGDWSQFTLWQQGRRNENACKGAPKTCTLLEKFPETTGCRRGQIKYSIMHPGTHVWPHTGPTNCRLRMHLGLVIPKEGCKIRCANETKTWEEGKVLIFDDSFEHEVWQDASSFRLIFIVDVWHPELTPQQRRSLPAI
Test: SPE-MS AspH inhibition assay (hFX-CP101-119 substrate hydroxylation)
Assay type: biochemical

[1] = AspH-inhibitor screening, 384-well Plate 1
[2] = AspH-inhibitor screening, 384-well Plate 1, substrate conversion
[3] = AspH-inhibitor screening, Plate 1-duplicate
[4] = AspH-inhibitor screening, Plate 1-duplicate, substrate conversion

Molecule	Plate 1 (% inhibition) [1]	Plate 1 (% conversion) [2]	Plate 1-duplicate (% inhibition) [3]	Plate 1-duplicate (% conversion) [4]	Plate 1 (% conversion)	Plate 1 (% inhibition)	Plate 1-duplicate (% conversion)	Plate 1-duplicate (% inhibition)
Nc1nc(OCc2cc(Br)cs2)c2[nH]cnc2n1 [Lomeguatrib]	5.31%	47.30%	8.11%	48.02%	–	–	–	–
NCC(=O)CCC(=O)O [Aminolevulinic acid hydrochloride]	20.47%	40.30%	25.89%	39.20%	–	–	–	–
CO[C@H]1C[C@@H]2CC[C@@H](C)[C@@](O)(O2)C(=O)C(=O)N2CCCC[C@H]2C(=O)O[C@H]([C@H](C)C[C@@H]2CC[C@@H](OCCO)[C@H](OC)C2)CC(=O)[C@H](C)/C=C(\C)[C@@H](O)[C@@H](OC)C(=O)[C@H](C)C[C@H](C)/C=C/C=C/C=C/1C [Everolimus]	-18.20%	58.15%	-27.79%	65.82%	–	–	–	–
CN1CCN(c2nc(C3=C(c4c[nH]c5ccccc45)C(=O)NC3=O)c3ccccc3n2)CC1 [Sotrastaurin]	20.56%	40.26%	11.48%	46.35%	–	–	–	–
Cc1c2oc3c(C)ccc(C(=O)N[C@@H]4C(=O)N[C@H](C(C)C)C(=O)N5CCC[C@H]5C(=O)N(C)CC(=O)N(C)[C@@H](C(C)C)C(=O)O[C@@H]4C)c3nc-2c(C(=O)N[C@@H]2C(=O)N[C@H](C(C)C)C(=O)N3CCC[C@H]3C(=O)N(C)CC(=O)N(C)[C@@H](C(C)C)C(=O)O[C@@H]2C)c(N)c1=O [Dactinomycin] (I: T[dV]P[Sar][NMeV] / II: T[dV]P[Sar][NMeV]; ester I:1-I:C, II:1-II:C; linker I:N-II:N via Actinocin(9to1))	-0.066%	49.78%	-9.41%	56.71%	–	–	–	–
CS(=O)(=O)c1ccc(C2=C(c3ccccc3)C(=O)OC2)cc1 [Rofecoxib (Vioxx)]	0.07%	49.72%	2.99%	50.56%	–	–	–	–
NC(=O)NO [Hydroxyurea]	16.85%	41.97%	8.68%	47.74%	–	–	–	–
C=CCNC1=C2C[C@@H](C)C[C@H](OC)[C@H](O)[C@@H](C)/C=C(\C)[C@H](OC(N)=O)[C@@H](OC)/C=C\C=C(/C)C(=O)NC(=CC1=O)C2=O [17-AAG (Tanespimycin, Geldanamycin)]	-8.89%	53.86%	-13.53%	58.75%	–	–	–	–
CC(=O)O[C@@]12CO[C@@H]1C[C@H](O)[C@@]1(C)C(=O)[C@H](O)C3=C(C)[C@@H](OC(=O)[C@H](O)[C@@H](NC(=O)OC(C)(C)C)c4ccccc4)C[C@@](O)([C@@H](OC(=O)c4ccccc4)[C@H]21)C3(C)C [Docetaxel]	-5.60%	52.34%	2.03%	51.03%	–	–	–	–
Cn1cc(CNCC2CCN(c3ncc(C(=O)NO)cn3)CC2)c2ccccc21 [JNJ-26481585_Quisinostat]	-7.35%	53.15%	-6.18%	55.11%	–	–	–	–
O=C(O)CCCc1ccc(N(CCCl)CCCl)cc1 [Chlorambucil]	2.87%	48.43%	1.52%	51.29%	–	–	–	–
Cc1ccc(NC(=O)c2ccc(CN3CCN(C)CC3)cc2)cc1Nc1nc(-c2cccnc2)cs1 [Masitinib]	-15.10%	56.72%	-11.47%	57.73%	–	–	–	–
CCN(CC)CCCC(C)Nc1ccnc2cc(Cl)ccc12 (stereo not shown) [Chloroquine diphosphate]	–	–	–	–	43.64%	13.23%	46.45%	11.28%
Nc1ncnc2c1c(COc1cccc(Cl)c1)nn2C1CCOCC1 [PF4800567 hydrochloride]	-0.85%	50.14%	0.27%	51.91%	–	–	–	–
Cc1cccc(-c2nn3c(c2-c2ccnc4ccc(C(N)=O)cc24)CCC3)n1 [LY2157299]	5.18%	47.36%	4.86%	49.63%	–	–	–	–
CC(=O)Nc1ccc(C(=O)Nc2ccccc2N)cc1 [CI-994_Tacedinaline]	4.32%	47.76%	4.57%	49.78%	–	–	–	–
COc1cc2c(Oc3ccc(NC(=O)C4(C(=O)Nc5ccc(F)cc5)CC4)cc3F)ccnc2cc1OCCCN1CCOCC1 [XL880 (Foretinib)]	-64.58%	79.57%	-62.78%	83.18%	–	–	–	–
AZ 3146	-12.15%	55.36%	4.56%	–	–	–	–	–
CC(=O)c1c(C)c2cnc(Nc3ccc(N4CCNCC4)cn3)nc2n(C2CCCC2)c1=O [Palbociclib]	13.54%	43.50%	4.20%	49.96%	–	–	–	–
Nc1nc2[nH]cc(CCc3ccc(C(=O)N[C@@H](CCC(=O)O)C(=O)O)cc3)c2c(=O)[nH]1 [Pemetrexed]	17.80%	41.53%	10.26%	46.95%	–	–	–	–
N.N.O=C([O-])C1(C(=O)[O-])CCC1.[Pt+2] [Carboplatin]	3.32%	48.22%	9.11%	47.52%	–	–	–	–
CN1CCN(c2ccc3nc(-c4c(N)c5c(F)cccc5[nH]c4=O)[nH]c3c2)CC1 [CHIR-258 (Dovitinib)]	-15.11%	56.73%	-6.96%	55.49%	–	–	–	–
FC(F)c1nc2ccccc2n1-c1nc(N2CCOCC2)nc(N2CCOCC2)n1 [ZSTK474]	-1.18%	50.29%	1.69%	51.20%	–	–	–	–
Cc1cc(Nc2cc(CN3CCOCC3)c3nc(C)c(Cc4ccc(Cl)cc4F)n3n2)n[nH]1 [LY2784544_Gandotinib]	-63.83%	79.23%	-64.31%	83.93%	–	–	–	–
Cc1c(C(=O)Nc2ccc(N3C[C@@H](C)O[C@@H](C)C3)nc2)cccc1-c1ccc(OC(F)(F)F)cc1 [Erismodegib]	-2.59%	50.95%	-6.71%	55.37%	–	–	–	–
Cc1c(Cn2c(C)nc3c(C(=O)O)cc(N4CCOCC4)cc32)cccc1C(F)(F)F [GSK2636771]	-0.51%	49.98%	13.40%	45.39%	–	–	–	–

Source: publication PMC7588595, “Small-molecule active pharmaceutical ingredients of approved cancer therapeutics inhibit human aspartate/asparagine-β-hydroxylase” (Bioorganic & Medicinal Chemistry, 2020)
